Data reported in patent US20180148418A1, “AMIDO-SUBSTITUTED CYCLOHEXANE DERIVATIVES” (Bayer Pharma Aktiengesellschaft, priority 2015, published 2018).
Where a name gives a salt, the structure may show the parent alone.

Tests used:
TNKS1 = target: T1, TNKS1 (Homo sapiens, UniProt O95271); assay: TNKS1 Assay B (auto-parsylation, [3H]-NAD+ SPA); format: biochemical; details: 6 nM TNKS1, auto-parsylation, over night at room temperature
T1 construct: purchased BPS Bioscience, San Diego, USA 80579 (TNKS1 Histone Ribosylation Assay Kit)
T1 sequence (O95271 1-1327): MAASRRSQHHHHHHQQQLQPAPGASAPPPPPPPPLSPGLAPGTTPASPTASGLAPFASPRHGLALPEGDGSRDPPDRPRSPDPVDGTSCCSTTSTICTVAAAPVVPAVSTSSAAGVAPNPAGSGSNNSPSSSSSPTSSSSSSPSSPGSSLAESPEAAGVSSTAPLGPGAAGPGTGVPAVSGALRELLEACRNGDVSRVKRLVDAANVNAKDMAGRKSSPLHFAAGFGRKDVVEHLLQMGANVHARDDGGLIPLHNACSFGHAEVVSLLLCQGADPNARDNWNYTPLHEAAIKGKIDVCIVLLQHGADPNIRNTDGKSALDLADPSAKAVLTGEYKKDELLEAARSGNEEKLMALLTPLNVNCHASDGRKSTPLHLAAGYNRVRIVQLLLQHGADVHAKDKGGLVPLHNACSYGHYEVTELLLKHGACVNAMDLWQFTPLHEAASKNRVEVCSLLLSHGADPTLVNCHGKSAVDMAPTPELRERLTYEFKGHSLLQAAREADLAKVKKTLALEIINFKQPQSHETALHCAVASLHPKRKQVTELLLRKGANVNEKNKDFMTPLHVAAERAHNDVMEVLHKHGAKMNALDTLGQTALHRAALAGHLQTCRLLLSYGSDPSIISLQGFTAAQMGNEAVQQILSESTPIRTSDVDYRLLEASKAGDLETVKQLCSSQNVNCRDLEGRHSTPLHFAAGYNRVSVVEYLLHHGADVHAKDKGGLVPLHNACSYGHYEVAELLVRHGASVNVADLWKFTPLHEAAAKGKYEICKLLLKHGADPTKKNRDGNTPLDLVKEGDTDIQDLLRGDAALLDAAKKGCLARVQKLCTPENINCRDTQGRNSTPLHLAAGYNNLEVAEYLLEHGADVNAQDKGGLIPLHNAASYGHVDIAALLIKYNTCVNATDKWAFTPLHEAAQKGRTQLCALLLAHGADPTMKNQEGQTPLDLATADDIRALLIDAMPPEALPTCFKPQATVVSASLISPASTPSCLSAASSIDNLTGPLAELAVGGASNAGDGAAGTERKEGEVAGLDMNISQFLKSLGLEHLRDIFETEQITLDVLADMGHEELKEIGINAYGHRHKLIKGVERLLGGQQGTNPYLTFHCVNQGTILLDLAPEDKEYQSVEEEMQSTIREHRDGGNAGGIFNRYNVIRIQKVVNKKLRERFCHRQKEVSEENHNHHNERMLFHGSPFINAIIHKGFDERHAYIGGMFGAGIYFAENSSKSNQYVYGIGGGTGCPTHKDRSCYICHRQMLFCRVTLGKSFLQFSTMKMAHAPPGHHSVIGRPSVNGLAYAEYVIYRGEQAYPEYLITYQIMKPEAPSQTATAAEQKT

[1] = tested on: HEK293 cells cotransfected with the FOP control vector; assay: HEK293 FOP assay (control reporter with non-functional TCF elements); format: cell-based; details: Homo sapiens, 16 hours
Method in brief: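 Compound series from 50 μM down to 15 nM, prediluted in DMSO then 50-fold into CAFTY buffer (pH 7.4, 2 mM Ca2+, 0.01% BSA), tested alongside TOP cells on a Geneticin-selected HEK293 FOP line whose TCF elements are replaced by a random sequence; recombinant human Wnt-3a applied at 2500-5 ng/ml.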

SMILES | IC50 (TNKS1) | IC50 [1]
Cc1c(C(C)N(C)C)cnc2c(C(=O)N[C@H]3CC[C@H](C(=O)Nc4ccc(F)cc4Cl)CC3)cnn12 (mixture of isomers) [Example 55, N-{trans-4-[(2-chloro-4-fluorophenyl)carbamoyl]cyclohexyl}-6-[1-(dimethylamino)ethyl]-7-methylpyrazolo[1,5-a]pyrimidine-3-carboxamide formic acid salt] | 740 nM | ≥ 50000 nM
O=C(NCCN1CCCCC1)c1nc[nH]c1C(=O)N[C@H]1CC[C@H](C(=O)Nc2ccc(F)cc2Cl)CC1 [Example 2, N^5-{trans-4-[(2-chloro-4-fluorophenyl)carbamoyl]cyclohexyl}-N^4-[2-(piperidin-1-yl)ethyl]-1H-imidazole-4,5-dicarboxamide] | 550 nM | ≥ 50000 nM
CNC(C)c1cnc2c(C(=O)N[C@H]3CC[C@H](C(=O)Nc4ccc(F)cc4Cl)CC3)cnn2c1C (stereo partly drawn) [Example 54, N-{trans-4-[(2-chloro-4-fluorophenyl)carbamoyl]cyclohexyl}-7-methyl-6-[1-(methylamino)ethyl]pyrazolo[1,5-a]pyrimidine-3-carboxamide formic acid salt] | 460 nM | ≥ 50000 nM

Further lines, with some results ahead:

IC50 (TNKS1) | SMILES | IC50 [1]
380 nM | CNC(=O)c1[nH]cnc1C(=O)NC1CCC(C(=O)Nc2ccc(F)cc2Cl)CC1C (racemic) [Example 39, N^4-{4-[(2-chloro-4-fluorophenyl)carbamoyl]-2-methylcyclohexyl}-N^5-methyl-1H-imidazole-4,5-dicarboxamide] | –
2800 nM | COCC(C)NC(=O)c1nc[nH]c1C(=O)N[C@H]1CC[C@H](C(=O)Nc2cc(N3CCOCC3)ccc2Cl)CC1 (stereo partly drawn) [Example 91, N^5-(trans-4-{[2-chloro-5-(morpholin-4-yl)phenyl]carbamoyl}cyclohexyl)-N^4-(1-methoxypropan-2-yl)-1H-imidazole-4,5-dicarboxamide] | ≥ 50000 nM
